Measurements as given in patent US20160015619A1, “TRANSPARENT SOL, GEL COMPOSITION CONTAINING HIGH CONCENTRATIONS OF VITAMIN C AND VITAMIN C DERIVATIVE” (ABIO CO., LTD., priority 2013, published 2016).

Experiment: Anti-oxidation experiment (DPPH free radical removing capability)
Assay type: biochemical
Procedure: The free radical removing capability was experimented using the embodiment 4 in Table 5. In case of the DPPH (1,1-diphenyl-2-picrylhydrazyl) used, the radical removing capability of radical sample which changes colors depending on the changes in oxidation/reduction environment was confirmed through the measurements of the O.D. value.
In details, the DPPH experiment sample was prepared by inputting the solution of the embodiment 4 in Table 5 into each well of the 96-well plate by 100 μl. The DPPH was added by 10 μl, and the mixture was placed at a room temperature for 30 minutes, and the absorbance at 517 nm was measured using a micro plate reader. At this time, the solution prepared by adding 10% of the distilled water instead of vitamin C into the solution of the embodiment 4 and the pure vitamin C were used as a control group.

## O=C1O[C@H]([C@@H](O)CO)C(O)=C1O [Control group 2 (vitamin C), L-ascorbic acid]
  effect on the activation of the anti-oxidation (in words): high effect on the activation of the anti-oxidation
Room temperature 30 minutes, absorbance at 517 nm
  Activation (%) of anti-oxidation: 90.8%
